From ChEMBL document CHEMBL5137036, “Design and synthesis of highly TRAIL expression HDAC inhibitors based on ONC201 to promote apoptosis of colorectal cancer” (Eur J Med Chem, 2022)
Calls of active or inactive are those of the source. No cut-off for these calls is given here.

Experiments:
Histone deacetylase 1 [1] = molecular target: T1, Histone deacetylase 1 (Homo sapiens, UniProt Q13547); experiment: Inhibition of human HDAC1 assessed as residual activity at 1 uM using RHKKAc fluorogenic peptide as substrate preincubated for 10 mins followed by substrate addition by fluorescence based analysis relative to control
T1 sequence (Q13547 whole entry): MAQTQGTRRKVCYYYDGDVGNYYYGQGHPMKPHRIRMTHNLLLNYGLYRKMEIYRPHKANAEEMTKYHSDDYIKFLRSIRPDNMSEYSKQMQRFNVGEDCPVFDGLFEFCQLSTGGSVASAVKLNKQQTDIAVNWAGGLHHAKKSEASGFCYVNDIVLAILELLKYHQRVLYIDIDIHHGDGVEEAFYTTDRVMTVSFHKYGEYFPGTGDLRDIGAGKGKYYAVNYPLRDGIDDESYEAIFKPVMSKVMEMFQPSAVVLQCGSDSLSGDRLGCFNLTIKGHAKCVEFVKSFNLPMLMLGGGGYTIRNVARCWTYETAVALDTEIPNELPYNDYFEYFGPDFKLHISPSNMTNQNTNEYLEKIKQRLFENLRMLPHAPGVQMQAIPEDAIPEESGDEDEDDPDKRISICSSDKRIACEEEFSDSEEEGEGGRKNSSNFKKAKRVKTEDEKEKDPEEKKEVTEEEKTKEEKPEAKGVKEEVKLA

HCT-116 [2] = experiment: Antiproliferative activity against human HCT-116 cells assessed as residual activity at 2 uM incubated for 72 hrs by luminescence based analysis relative to control; type: functional
HepG2 = experiment: Antiproliferative activity against human HepG2 cells assessed as inhibition of cell growth incubated for 72 hrs by luminescence based analysis; type: functional; settings: HepG2, 72 h
MV4-11 = experiment: Antiproliferative activity against human MV4-11 cells assessed as inhibition of cell growth incubated for 72 hrs by luminescence based analysis; type: functional; settings: MV4-11, 72 h
Histone deacetylase 1 [3] = molecular target: T1, Histone deacetylase 1; experiment: Inhibition of human HDAC1 using RHKKAc fluorogenic peptide as substrate preincubated for 10 mins followed by substrate addition by fluorescence based analysis
Histone deacetylase 1 [4] = molecular target: T1, Histone deacetylase 1; experiment: Inhibition of HDAC1 in human HCT-116 cells assessed as increase in DR5 protein expression at 0.5 uM incubated for 12 hrs by Western blot analysis; type: cell-based
HCT-116 [5] = experiment: Antiproliferative activity against human HCT-116 cells assessed as inhibition of cell growth incubated for 72 hrs by luminescence based analysis; type: functional; settings: HCT-116, 72 h
HCT-116 [6] = experiment: Induction of apoptosis in human HCT-116 cells assessed as dead cells at 0.5 uM incubated for 24 hrs by AnnexinV-FITC/PI staining based flow cytometry (reference value: 4.62 %); type: functional
HCT-116 [7] = experiment: Induction of apoptosis in human HCT-116 cells assessed as early apoptotic cells at 0.5 uM incubated for 24 hrs by AnnexinV-FITC/PI staining based flow cytometry (reference value: 0.93 %); type: functional
HCT-116 [8] = experiment: Induction of apoptosis in human HCT-116 cells assessed as viable cells at 0.5 uM incubated for 24 hrs by AnnexinV-FITC/PI staining based flow cytometry (reference value: 93.64%); type: functional; settings: read-out: Activity
HCT-116 [9] = experiment: Induction of apoptosis in human HCT-116 cells assessed as late apoptotic cells at 0.5 uM incubated for 24 hrs by AnnexinV-FITC/PI staining based flow cytometry (reference value: 0.82 %); type: functional

Row | Activity (Histone deacetylase 1 [1]) | IC50 (HepG2) | IC50 (MV4-11) | IC50 (Histone deacetylase 1 [3]) | Compound | further results
1 | 78.3% |  |  |  | Nc1cc(F)ccc1NC(=O)c1ccc(CN2C(=O)C3=C(CCN(Cc4ccccc4)C3)N3CCN=C23)cc1 | 
2 |  | 1270 nM | 828 nM | 273 nM | NC1=C(CCNC(=O)c2ccccc2)C(=O)N(Cc2ccc(C(=O)Nc3ccccc3N)cc2)C2=NCCN21 | Activity (HCT-116 [2]): 88.98%
3 |  | 4520 nM | 2430 nM | 377 nM | Cc1ccc(/C=C/C(=O)N2CCC3=C(C2)C(=O)N(Cc2ccc(C(=O)Nc4ccccc4N)cc2)C2=NCCN23)o1 | Activity (HCT-116 [2]): 79.55%
4 |  | 4000 nM | 753 nM | 198 nM | Nc1ccccc1NC(=O)c1ccc(CN2C(=O)C3=C(CCN(Cc4ccccc4)C3)N3CCN=C23)cc1 | inhibition (Histone deacetylase 1 [4]): Active; IC50 (HCT-116 [5]): 1450 nM
5 |  |  |  | 600 nM | Nc1ccccc1NC(=O)c1ccc(CN2C(=O)C(CCCc3ccccc3)=C(O)N3CCN=C23)cc1 | 
6 | 46.3% |  |  |  | CC(c1ccccc1)N1C(=O)C2=C(CCN(Cc3ccc(C(=O)Nc4ccccc4N)cc3)C2)N2CCN=C21 (stereo not drawn) | 
7 |  | 3560 nM | 801 nM | 253 nM | Cc1ccccc1CN1C(=O)C2=C(CCN(Cc3ccc(C(=O)Nc4ccccc4N)cc3)C2)N2CCN=C12 | IC50 (HCT-116 [5]): 1080 nM
8 | 58.1% |  |  |  | Nc1ccccc1NC(=O)c1ccc(CN2C(=O)C3=C(CCN(Cc4ccc5ccccc5c4)C3)N3CCN=C23)cc1 | 
9 | 68% |  |  |  | Cc1ccccc1CN1CCC2=C(C1)C(=O)N(Cc1ccc(C(=O)Nc3ccc(F)cc3N)cc1)C1=NCCN12 | 
10 |  | 6170 nM | 1450 nM | 278 nM | Nc1ccccc1NC(=O)c1ccc(CN2C(=O)C3=C(CCN(C(=O)/C=C/c4ccc(Cl)cc4F)C3)N3CCN=C23)cc1 | IC50 (HCT-116 [5]): 662 nM
11 |  | 4720 nM | 957 nM | 174 nM | N#Cc1ccc(CN2C(=O)C3=C(CCN(Cc4ccc(C(=O)Nc5ccccc5N)cc4)C3)N3CCN=C23)cc1 | IC50 (HCT-116 [5]): 967 nM
12 | 46.4% |  |  |  | Nc1ccccc1NC(=O)c1ccc(CN2CCC3=C(C2)C(=O)N(Cc2cccnc2)C2=NCCN23)cc1 | 
13 | 58.3% |  |  |  | Nc1ccccc1NC(=O)c1ccc(CN2C(=O)C3=C(CCN(Cc4nc5ccccc5[nH]4)C3)N3CCN=C23)cc1 | 
14 | 44.4% |  |  |  | COc1ccc(CN2CCC3=C(C2)C(=O)N(Cc2ccc(C(=O)Nc4ccccc4N)cc2)C2=NCCN23)cc1 | 
15 |  | 4490 nM | 1270 nM | 66.9 nM | NC1=C(CCCc2ccccc2)C(=O)N(Cc2ccc(C(=O)Nc3ccccc3N)cc2)C2=NCCN21 | inhibition (Histone deacetylase 1 [4]): Active; IC50 (HCT-116 [5]): 673 nM
16 | 49.1% |  |  |  | Nc1ccccc1NC(=O)c1ccc(CN2CCC3=C(C2)C(=O)N(Cc2cccc(F)c2)C2=NCCN23)cc1 | 
17 | 52.2% |  |  |  | Nc1ccccc1NC(=O)c1ccc(CN2C(=O)C3=C(CCN(Cc4ccc(Cl)c(C(F)(F)F)c4)C3)N3CCN=C23)cc1 | 
18 | 63.8% |  |  |  | CNC1=C(CCCc2ccccc2)C(=O)N(Cc2ccc(C(=O)Nc3ccccc3N)cc2)C2=NCCN21 | 
19 |  |  |  | 413 nM | NC1=C(CCCc2ccccc2)C(=O)N(Cc2ccc(C(=O)Nc3ccc(F)cc3N)cc2)C2=NCCN21 | 

Row | Compound | Activity (Histone deacetylase 1 [1]) | IC50 (HepG2) | IC50 (MV4-11) | IC50 (Histone deacetylase 1 [3]) | further results
20 | Nc1cc(F)ccc1NC(=O)c1ccc(CNC(=O)/C=C/c2cccnc2)cc1 [TUCIDINOSTAT] |  | 2000 nM | 783 nM |  | Activity (HCT-116 [6]): 8.27%; Activity (HCT-116 [7]): 1.22%; viability at 0.5 µM (HCT-116 [8]): 88.8%; Activity (HCT-116 [9]): 1.66%
